Source: patent US9469650B2, “Melampomagnolide B derivatives” (BOARD OF TRUSTEES OF THE UNIVERSITY OF ARKANSAS, priority 2013, dated 2016)

Experiments:
COLO 205 = assay: panel of 60 human tumor cell lines, growth inhibition (Colon Cancer); settings: Homo sapiens; for GI50: COLO 205; for CC50: COLO 205, read-out: LC50; for IC (TGI): COLO 205, read-out: TGI
K-562 = assay: panel of 60 human tumor cell lines, growth inhibition (Leukemia); settings: for CC50: K562, read-out: LC50; for TGI / Percent Growth: K-562
A498 = assay: panel of 60 human tumor cell lines, growth inhibition (Renal Cancer); settings: Homo sapiens; for GI50: A498; for CC50: A498, read-out: LC50; for IC (TGI): A498, read-out: TGI
OVCAR-8 = assay: panel of 60 human tumor cell lines, growth inhibition (Ovarian Cancer); settings: Homo sapiens; for GI50: OVCAR-8; for CC50: OVCAR-8, read-out: LC50; for IC (TGI): OVCAR-8, read-out: TGI
KM12 = assay: panel of 60 human tumor cell lines, growth inhibition (Colon Cancer); settings: for GI50 / CC50: Homo sapiens; for GI50 / TGI / Percent Growth: KM12; for CC50: KM12, read-out: LC50
NCI-H322M = assay: panel of 60 human tumor cell lines, growth inhibition (Non-Small Cell Lung Cancer); settings: Homo sapiens; for CC50: read-out: LC50; for IC (TGI): read-out: TGI
MDA-MB-468 = assay: panel of 60 human tumor cell lines, growth inhibition (Breast Cancer); settings: Homo sapiens; for GI50: MDA-MB-468; for CC50: MDA-MB-468, read-out: LC50; for IC (TGI): MDA-MB-468, read-out: TGI
HCT-15 = assay: panel of 60 human tumor cell lines, growth inhibition (Colon Cancer); settings: Homo sapiens; for GI50: HCT-15; for CC50: HCT-15, read-out: LC50; for IC (TGI): HCT-15, read-out: TGI
HOP-92 = assay: panel of 60 human tumor cell lines, growth inhibition (Non-Small Cell Lung Cancer); settings: Homo sapiens; for GI50: HOP-92, HOP-92; for CC50: HOP-92, read-out: LC50; for IC (TGI): HOP-92, read-out: TGI
SF-539 = assay: panel of 60 human tumor cell lines, growth inhibition (CNS Cancer); settings: Homo sapiens; for GI50: SF-539; for CC50: SF-539, read-out: LC50; for IC (TGI): SF-539, read-out: TGI
RXF 393 = assay: panel of 60 human tumor cell lines, growth inhibition (Renal Cancer); settings: Homo sapiens; for GI50: RXF 393, RXF 393; for CC50: RXF 393, read-out: LC50; for IC (TGI): RXF 393, read-out: TGI
SR = assay: panel of 60 human tumor cell lines, growth inhibition (Leukemia); settings: Homo sapiens; for CC50: read-out: LC50; for IC (TGI): read-out: TGI
SF-268 = assay: panel of 60 human tumor cell lines, growth inhibition (CNS Cancer); settings: Homo sapiens; for GI50: SF-268; for CC50: SF-268, read-out: LC50; for IC (TGI): SF-268, read-out: TGI
MDA-MB-435 = assay: panel of 60 human tumor cell lines, growth inhibition (Melanoma); settings: Homo sapiens; for GI50: MDA-MB-435; for CC50: MDA-MB-435, read-out: LC50; for IC (TGI): MDA-MB-435, read-out: TGI
UACC-62 = assay: as above; settings: Homo sapiens; for GI50: UACC-62; for CC50: UACC-62, read-out: LC50; for IC (TGI): UACC-62, read-out: TGI
CCRF-CEM = assay: panel of 60 human tumor cell lines, growth inhibition (Leukemia); settings: Homo sapiens; for CC50: read-out: LC50; for IC (TGI): read-out: TGI
OVCAR-5 = assay: panel of 60 human tumor cell lines, growth inhibition (Ovarian Cancer); settings: Homo sapiens; for GI50: OVCAR-5; for CC50: OVCAR-5, read-out: LC50; for IC (TGI): OVCAR-5, read-out: TGI

## C=C1C(=O)O[C@H]2[C@H]1CC/C(COC(=O)NCCN1CCOCC1)=C\CC[C@@]1(C)O[C@@H]21 [JVM 57, ((1aR,7aS,10aS,10bS,E)-1a-methyl-8-methylene-9-oxo-1a,2,3,6,7,7a,8,9,10a,10b-decahydrooxireno[2′,3′:9,10]-cyclodeca[1,2-b]furan-5-yl)-methyl(2-morpholinoethyl)carbamate]
COLO 205
  GI50: 8.89 µM
  CC50: 71.6 µM
  IC (TGI): 25.9 µM
K-562; Homo sapiens, K562
  GI50: 3.37 µM
K-562; Homo sapiens
  CC50: > 100 µM
K-562
  TGI: 2.88E−5
K-562; Log10 Concentration −4.0
  Percent Growth: −16%
K-562; Log10 Concentration −5.0
  Percent Growth: 14%
K-562; Log10 Concentration −6.0
  Percent Growth: 90%
K-562; Log10 Concentration −7.0
  Percent Growth: 99%
K-562; Log10 Concentration −8.0
  Percent Growth: 100%
A498
  GI50: 19.4 µM
  CC50: > 100 µM
  IC (TGI): 57 µM
OVCAR-8
  GI50: 12.7 µM
  CC50: > 100 µM
  IC (TGI): 36.8 µM
KM12
  GI50: 26.3 µM
  CC50: > 100 µM
  TGI: 7.66E−5
KM12; Log10 Concentration −4.0
  Percent Growth: −12%
KM12; Log10 Concentration −5.0
  Percent Growth: 95%
KM12; Log10 Concentration −6.0
  Percent Growth: 100%
KM12; Log10 Concentration −7.0
  Percent Growth: 106%
KM12; Log10 Concentration −8.0
  Percent Growth: 102%
NCI-H322M
  GI50: 37.9 µM
  CC50: > 100 µM
  IC (TGI): > 100 µM
MDA-MB-468
  GI50: 3.26 µM
  CC50: 59.1 µM
  IC (TGI): 14.6 µM
HCT-15
  GI50: 10.5 µM
  CC50: > 100 µM
  IC (TGI): 34.4 µM
HOP-92
  GI50: 2.3 µM
  CC50: 33.7 µM
  IC (TGI): 8.61 µM
HOP-92; 5-dose assay
  GI50: 2.3 µM
SF-539
  GI50: 14.4 µM
  CC50: 55.2 µM
  IC (TGI): 28.2 µM
RXF 393
  GI50: 3 µM
  CC50: 41 µM
  IC (TGI): 11.9 µM
RXF 393; 5-dose assay
  GI50: 3 µM
SR
  GI50: 3.65 µM
  CC50: > 100 µM
  IC (TGI): 25.1 µM
SF-268
  GI50: 14.5 µM
  CC50: 64.4 µM
  IC (TGI): 30.5 µM
MDA-MB-435
  GI50: 5.89 µM
  CC50: 66.9 µM
  IC (TGI): 22 µM
UACC-62
  GI50: 11.8 µM
  CC50: 53.2 µM
  IC (TGI): 25.1 µM
CCRF-CEM
  GI50: 3.03 µM
  CC50: ≥ 109 µM
  IC (TGI): 11.6 µM
CCRF-CEM; 5-dose assay
  GI50: 3.03 µM
OVCAR-5
  GI50: 15.7 µM
  CC50: 78.5 µM
  IC (TGI): 35.2 µM

## C=C1C(=O)O[C@H]2[C@H]1CC/C(COC(=S)n1ccnc1)=C\CC[C@@]1(C)O[C@@H]21 [JVM 66]
COLO 205
  GI50: 12.3 µM
  CC50: 61.9 µM
  IC (TGI): 27.6 µM
K-562; Homo sapiens
  CC50: > 100 µM
K-562; Log10 Concentration −4.0
  Percent Growth: 1%
K-562; Log10 Concentration −5.0
  Percent Growth: 16%
K-562; Log10 Concentration −6.0
  Percent Growth: 100%
K-562; Log10 Concentration −7.0
  Percent Growth: 90%
K-562; Log10 Concentration −8.0
  Percent Growth: 96%
K-562; NCI five dose
  TGI: >1.00E−4
A498
  GI50: 14.5 µM
  CC50: > 100 µM
  IC (TGI): 65.5 µM
OVCAR-8
  GI50: 11.4 µM
  CC50: > 100 µM
  IC (TGI): > 100 µM
KM12
  GI50: > 100 µM
  CC50: > 100 µM
KM12; Log10 Concentration −4.0
  Percent Growth: 60%
KM12; Log10 Concentration −5.0
  Percent Growth: 99%
KM12; Log10 Concentration −6.0
  Percent Growth: 99%
KM12; Log10 Concentration −7.0
  Percent Growth: 102%
KM12; Log10 Concentration −8.0
  Percent Growth: 100%
KM12; NCI five dose
  TGI: >1.00E−4
NCI-H322M
  GI50: 69.5 µM
  CC50: > 100 µM
  IC (TGI): 106 µM
MDA-MB-468
  GI50: 3.55 µM
  CC50: > 100 µM
  IC (TGI): 28.5 µM
HCT-15
  GI50: 6.88 µM
  CC50: 89.2 µM
  IC (TGI): 27.1 µM
HOP-92; NCI five dose
  GI50: 6.83 µM
HOP-92
  CC50: 83.2 µM
  IC (TGI): 26.9 µM
SF-539
  GI50: 16.7 µM
  CC50: 69.1 µM
  IC (TGI): 34 µM
RXF 393; NCI five dose
  GI50: 3.08 µM
RXF 393
  CC50: 57.4 µM
  IC (TGI): 11.4 µM
SR
  GI50: 6.17 µM
  CC50: > 100 µM
  IC (TGI): 38.5 µM
SF-268
  GI50: 21.9 µM
  CC50: > 100 µM
  IC (TGI): 67.7 µM
MDA-MB-435
  GI50: 16.7 µM
  CC50: > 100 µM
  IC (TGI): 43.8 µM
UACC-62
  GI50: 13.9 µM
  CC50: 74.8 µM
  IC (TGI): 32.3 µM
CCRF-CEM; NCI five dose
  GI50: 3.38 µM
CCRF-CEM
  CC50: > 100 µM
  IC (TGI): 16.6 µM
OVCAR-5
  GI50: 13.5 µM
  CC50: 78.1 µM
  IC (TGI): 1760 µM
